Drawing on ChEMBL document CHEMBL1145498, “A systematic interaction map of validated kinase inhibitors with Ser/Thr kinases” (Proc Natl Acad Sci U S A, 2007), this text covers ΔTm for 9 molecules.

For assay [1], the target named is Calcium/calmodulin-dependent protein kinase type II subunit beta (Homo sapiens) (UniProt Q13554).
Assay [2] has as its target Cyclin-dependent kinase 6 (Homo sapiens) (UniProt Q00534).
Assay [3] has as its target Casein kinase I isoform gamma-2 (Homo sapiens) (UniProt P78368).
Assay [4] addresses Death-associated protein kinase 3 (Homo sapiens) (UniProt O43293).
For assay [5], the target named is Glycogen synthase kinase-3 beta (Homo sapiens, UniProt P49841).
Assay [6] concerns the target Tyrosine-protein kinase JAK1 (Homo sapiens) (UniProt P23458).
Assay [7] has as its target T1, Dual specificity mitogen-activated protein kinase kinase 6 (Homo sapiens) (UniProt P52564).
T1 sequence (whole entry): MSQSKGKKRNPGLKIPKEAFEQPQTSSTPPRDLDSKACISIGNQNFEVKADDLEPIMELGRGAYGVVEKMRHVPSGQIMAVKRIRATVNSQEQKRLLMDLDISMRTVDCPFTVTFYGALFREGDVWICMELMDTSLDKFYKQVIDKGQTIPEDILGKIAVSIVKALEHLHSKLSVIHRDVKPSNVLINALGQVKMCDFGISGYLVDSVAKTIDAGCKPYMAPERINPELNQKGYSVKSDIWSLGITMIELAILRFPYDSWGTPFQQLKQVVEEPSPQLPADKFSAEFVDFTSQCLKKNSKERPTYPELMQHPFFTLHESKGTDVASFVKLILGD

Assay [8] has as its target T2, Mitogen-activated protein kinase kinase kinase 5 (Homo sapiens) (UniProt Q99683).
T2 sequence (whole entry): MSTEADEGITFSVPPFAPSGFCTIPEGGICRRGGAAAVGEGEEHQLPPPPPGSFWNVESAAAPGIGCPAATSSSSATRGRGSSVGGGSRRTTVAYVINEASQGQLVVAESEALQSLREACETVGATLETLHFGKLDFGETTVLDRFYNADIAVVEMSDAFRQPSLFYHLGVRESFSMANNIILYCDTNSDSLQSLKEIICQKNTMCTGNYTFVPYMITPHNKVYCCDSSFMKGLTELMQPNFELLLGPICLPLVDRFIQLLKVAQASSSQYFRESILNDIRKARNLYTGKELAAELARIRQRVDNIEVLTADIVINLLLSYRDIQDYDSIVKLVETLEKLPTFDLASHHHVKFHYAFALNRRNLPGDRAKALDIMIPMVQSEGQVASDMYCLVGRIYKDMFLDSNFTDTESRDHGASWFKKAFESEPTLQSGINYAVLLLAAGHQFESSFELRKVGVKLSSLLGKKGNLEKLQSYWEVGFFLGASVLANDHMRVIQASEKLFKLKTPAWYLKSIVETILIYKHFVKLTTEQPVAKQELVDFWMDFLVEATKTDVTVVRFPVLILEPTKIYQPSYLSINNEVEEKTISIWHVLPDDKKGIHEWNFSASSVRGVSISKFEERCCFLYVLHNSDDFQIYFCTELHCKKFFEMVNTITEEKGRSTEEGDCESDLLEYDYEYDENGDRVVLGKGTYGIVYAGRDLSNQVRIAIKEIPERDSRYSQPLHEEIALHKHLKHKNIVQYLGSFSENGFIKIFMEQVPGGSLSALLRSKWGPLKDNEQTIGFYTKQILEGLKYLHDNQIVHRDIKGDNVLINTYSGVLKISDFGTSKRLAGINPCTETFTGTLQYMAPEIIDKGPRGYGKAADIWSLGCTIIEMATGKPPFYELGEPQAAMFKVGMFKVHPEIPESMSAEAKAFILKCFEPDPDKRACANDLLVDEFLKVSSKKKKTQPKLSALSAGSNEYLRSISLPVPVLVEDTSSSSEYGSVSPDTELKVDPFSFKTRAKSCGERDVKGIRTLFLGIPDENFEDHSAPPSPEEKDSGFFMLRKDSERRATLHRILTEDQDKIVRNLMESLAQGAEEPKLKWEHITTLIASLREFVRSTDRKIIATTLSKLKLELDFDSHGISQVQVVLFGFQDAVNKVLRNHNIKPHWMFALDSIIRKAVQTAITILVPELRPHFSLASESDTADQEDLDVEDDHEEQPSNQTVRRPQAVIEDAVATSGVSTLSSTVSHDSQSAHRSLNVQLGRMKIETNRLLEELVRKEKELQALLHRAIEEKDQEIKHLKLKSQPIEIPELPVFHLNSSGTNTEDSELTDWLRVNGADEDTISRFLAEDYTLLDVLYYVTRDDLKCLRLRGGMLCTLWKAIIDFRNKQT

The target of assay [9] is Mitogen-activated protein kinase 6 (Homo sapiens) (UniProt Q16659).
Assay [10] addresses Serine/threonine-protein kinase 26 (Homo sapiens) (UniProt Q9P289).
For assay [11], the target named is Serine/threonine-protein kinase PAK 4 (Homo sapiens) (UniProt O96013).
Assay [12] concerns the target Serine/threonine-protein kinase pim-3 (Homo sapiens) (UniProt Q86V86).
Assay [13] addresses cAMP-dependent protein kinase catalytic subunit alpha (Homo sapiens) (UniProt P17612).
Assay [14] concerns the target Ribosomal protein S6 kinase alpha-3 (Homo sapiens) (UniProt P51812).
For assay [15], the target named is T3, Serine/threonine-protein kinase VRK1 (Homo sapiens) (UniProt Q99986).
T3 sequence (whole entry): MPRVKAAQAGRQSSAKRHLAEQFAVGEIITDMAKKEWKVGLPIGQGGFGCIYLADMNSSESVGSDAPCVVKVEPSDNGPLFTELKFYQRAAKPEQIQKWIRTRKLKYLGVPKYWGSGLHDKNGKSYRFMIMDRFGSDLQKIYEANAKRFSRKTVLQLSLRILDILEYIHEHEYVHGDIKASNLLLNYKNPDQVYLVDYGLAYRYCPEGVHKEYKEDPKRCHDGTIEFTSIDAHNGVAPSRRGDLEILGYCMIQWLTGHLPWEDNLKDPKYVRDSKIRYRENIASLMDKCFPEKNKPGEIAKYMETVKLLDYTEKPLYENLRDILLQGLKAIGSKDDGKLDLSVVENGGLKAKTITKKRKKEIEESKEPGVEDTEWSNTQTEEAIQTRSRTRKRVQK

A word on the ΔTm: it is the shift of the melting midpoint relative to a reference.

Chain of Tyrosine-protein kinase JAK1 (Homo sapiens) (P23458 whole entry): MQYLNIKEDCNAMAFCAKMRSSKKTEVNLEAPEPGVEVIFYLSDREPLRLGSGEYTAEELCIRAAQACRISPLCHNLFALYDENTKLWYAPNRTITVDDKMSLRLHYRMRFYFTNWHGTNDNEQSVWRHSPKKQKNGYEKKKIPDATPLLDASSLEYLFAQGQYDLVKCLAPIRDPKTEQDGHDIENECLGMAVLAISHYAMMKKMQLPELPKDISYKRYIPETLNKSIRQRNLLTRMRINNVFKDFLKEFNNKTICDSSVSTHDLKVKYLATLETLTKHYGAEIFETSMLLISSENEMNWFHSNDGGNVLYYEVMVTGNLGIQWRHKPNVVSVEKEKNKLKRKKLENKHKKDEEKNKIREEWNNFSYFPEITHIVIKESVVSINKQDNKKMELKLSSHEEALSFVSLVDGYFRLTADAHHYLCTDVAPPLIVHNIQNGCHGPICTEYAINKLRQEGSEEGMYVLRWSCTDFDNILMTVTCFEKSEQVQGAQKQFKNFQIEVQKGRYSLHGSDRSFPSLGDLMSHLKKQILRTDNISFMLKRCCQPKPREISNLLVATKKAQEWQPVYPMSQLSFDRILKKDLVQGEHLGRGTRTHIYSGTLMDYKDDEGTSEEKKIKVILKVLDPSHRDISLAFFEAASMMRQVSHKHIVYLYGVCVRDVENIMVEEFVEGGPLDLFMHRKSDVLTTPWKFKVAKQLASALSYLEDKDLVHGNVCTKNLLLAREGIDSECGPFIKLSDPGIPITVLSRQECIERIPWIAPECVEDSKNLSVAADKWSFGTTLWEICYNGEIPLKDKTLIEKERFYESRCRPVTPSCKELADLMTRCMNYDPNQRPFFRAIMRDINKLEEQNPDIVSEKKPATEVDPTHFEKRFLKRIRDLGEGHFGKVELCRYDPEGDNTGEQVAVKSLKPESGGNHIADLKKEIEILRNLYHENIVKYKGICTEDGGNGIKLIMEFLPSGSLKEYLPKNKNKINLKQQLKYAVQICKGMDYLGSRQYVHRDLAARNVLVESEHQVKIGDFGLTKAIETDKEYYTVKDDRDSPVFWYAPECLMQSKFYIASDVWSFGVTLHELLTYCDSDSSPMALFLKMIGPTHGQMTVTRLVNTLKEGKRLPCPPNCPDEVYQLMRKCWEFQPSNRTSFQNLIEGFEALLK
Chain of Death-associated protein kinase 3 (Homo sapiens) (O43293 whole entry, looked up): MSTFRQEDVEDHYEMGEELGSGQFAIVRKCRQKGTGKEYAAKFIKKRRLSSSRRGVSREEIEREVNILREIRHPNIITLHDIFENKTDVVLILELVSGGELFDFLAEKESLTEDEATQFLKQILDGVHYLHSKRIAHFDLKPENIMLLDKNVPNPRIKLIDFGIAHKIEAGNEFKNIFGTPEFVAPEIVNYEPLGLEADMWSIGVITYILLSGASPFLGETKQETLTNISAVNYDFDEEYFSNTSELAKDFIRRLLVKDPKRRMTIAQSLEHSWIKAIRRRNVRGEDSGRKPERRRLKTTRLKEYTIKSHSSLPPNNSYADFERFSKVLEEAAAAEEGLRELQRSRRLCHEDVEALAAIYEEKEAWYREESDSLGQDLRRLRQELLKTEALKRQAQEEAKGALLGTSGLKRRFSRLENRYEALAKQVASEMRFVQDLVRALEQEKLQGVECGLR
Chain of Glycogen synthase kinase-3 beta (P49841 whole entry, looked up): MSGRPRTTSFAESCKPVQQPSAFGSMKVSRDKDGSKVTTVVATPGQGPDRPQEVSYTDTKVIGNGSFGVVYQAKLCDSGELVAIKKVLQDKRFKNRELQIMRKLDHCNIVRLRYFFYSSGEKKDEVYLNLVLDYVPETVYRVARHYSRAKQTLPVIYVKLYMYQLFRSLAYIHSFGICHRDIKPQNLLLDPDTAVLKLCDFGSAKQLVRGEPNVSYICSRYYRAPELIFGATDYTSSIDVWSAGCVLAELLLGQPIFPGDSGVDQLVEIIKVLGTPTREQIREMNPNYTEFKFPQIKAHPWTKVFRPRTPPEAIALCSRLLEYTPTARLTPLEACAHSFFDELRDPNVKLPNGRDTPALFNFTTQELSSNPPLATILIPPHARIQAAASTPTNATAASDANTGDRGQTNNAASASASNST
Chain of Casein kinase I isoform gamma-2 (Homo sapiens) (P78368 whole entry, looked up, canonical isoform): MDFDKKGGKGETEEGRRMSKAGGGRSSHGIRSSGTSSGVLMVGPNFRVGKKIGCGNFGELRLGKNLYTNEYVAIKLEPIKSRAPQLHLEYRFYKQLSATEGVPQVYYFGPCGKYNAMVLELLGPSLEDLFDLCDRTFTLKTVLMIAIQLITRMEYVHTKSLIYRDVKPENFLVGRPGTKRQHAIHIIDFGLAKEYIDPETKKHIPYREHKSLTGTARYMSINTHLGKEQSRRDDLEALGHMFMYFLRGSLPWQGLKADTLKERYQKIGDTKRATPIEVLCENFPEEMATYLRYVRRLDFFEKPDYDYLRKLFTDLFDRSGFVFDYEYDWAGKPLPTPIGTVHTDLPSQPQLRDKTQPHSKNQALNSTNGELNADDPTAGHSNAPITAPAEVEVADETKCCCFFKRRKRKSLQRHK
Chain of Ribosomal protein S6 kinase alpha-3 (Homo sapiens) (P51812 whole entry): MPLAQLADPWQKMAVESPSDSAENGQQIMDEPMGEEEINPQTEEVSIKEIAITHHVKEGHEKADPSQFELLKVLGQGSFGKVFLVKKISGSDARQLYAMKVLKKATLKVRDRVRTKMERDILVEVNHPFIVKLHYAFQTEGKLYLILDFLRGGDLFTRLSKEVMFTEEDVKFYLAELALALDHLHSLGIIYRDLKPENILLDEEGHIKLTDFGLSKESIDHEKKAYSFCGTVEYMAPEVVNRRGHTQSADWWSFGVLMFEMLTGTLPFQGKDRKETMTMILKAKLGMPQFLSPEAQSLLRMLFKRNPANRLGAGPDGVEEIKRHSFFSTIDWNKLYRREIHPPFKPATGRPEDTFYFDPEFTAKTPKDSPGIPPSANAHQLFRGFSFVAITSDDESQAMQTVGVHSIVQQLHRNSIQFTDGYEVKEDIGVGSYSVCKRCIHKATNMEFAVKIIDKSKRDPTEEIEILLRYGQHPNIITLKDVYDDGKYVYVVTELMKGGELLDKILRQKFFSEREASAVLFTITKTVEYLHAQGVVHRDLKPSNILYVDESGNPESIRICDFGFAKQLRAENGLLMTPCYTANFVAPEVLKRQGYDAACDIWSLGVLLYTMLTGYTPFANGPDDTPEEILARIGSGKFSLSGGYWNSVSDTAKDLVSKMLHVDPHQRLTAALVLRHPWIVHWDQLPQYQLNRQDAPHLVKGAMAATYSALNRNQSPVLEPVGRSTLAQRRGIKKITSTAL
Chain of Serine/threonine-protein kinase 26 (Homo sapiens) (Q9P289 2-416 limits assumed): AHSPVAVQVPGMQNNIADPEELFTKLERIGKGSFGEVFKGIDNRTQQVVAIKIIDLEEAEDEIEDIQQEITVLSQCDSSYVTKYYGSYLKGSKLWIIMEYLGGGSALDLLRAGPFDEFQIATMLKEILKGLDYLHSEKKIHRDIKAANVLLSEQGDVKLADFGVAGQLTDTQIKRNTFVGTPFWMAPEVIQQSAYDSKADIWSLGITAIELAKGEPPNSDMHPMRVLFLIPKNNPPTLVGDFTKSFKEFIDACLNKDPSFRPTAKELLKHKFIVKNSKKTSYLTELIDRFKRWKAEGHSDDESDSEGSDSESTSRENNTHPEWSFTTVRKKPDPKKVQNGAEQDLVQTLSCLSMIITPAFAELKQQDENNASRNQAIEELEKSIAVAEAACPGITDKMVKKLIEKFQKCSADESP
Chain of Mitogen-activated protein kinase 6 (Homo sapiens) (Q16659 whole entry): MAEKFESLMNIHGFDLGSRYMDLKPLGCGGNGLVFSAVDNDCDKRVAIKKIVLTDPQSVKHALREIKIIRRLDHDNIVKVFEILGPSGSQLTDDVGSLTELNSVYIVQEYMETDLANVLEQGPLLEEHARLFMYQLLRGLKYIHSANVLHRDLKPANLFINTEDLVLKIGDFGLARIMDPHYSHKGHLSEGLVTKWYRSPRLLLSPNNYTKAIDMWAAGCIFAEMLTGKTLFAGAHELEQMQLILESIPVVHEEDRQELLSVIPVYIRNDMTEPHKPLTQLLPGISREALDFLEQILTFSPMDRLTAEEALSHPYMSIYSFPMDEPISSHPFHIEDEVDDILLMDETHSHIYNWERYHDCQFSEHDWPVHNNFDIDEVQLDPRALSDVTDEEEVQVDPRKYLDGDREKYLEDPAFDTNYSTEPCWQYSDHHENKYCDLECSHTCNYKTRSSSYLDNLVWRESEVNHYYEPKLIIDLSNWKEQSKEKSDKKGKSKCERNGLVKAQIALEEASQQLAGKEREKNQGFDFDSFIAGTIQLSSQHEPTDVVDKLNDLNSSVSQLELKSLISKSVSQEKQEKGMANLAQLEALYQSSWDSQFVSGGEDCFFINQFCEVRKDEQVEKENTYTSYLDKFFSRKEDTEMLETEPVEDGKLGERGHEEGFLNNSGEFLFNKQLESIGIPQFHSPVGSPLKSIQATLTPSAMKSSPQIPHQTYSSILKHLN
Chain of Cyclin-dependent kinase 6 (Homo sapiens) (Q00534 whole entry, canonical isoform): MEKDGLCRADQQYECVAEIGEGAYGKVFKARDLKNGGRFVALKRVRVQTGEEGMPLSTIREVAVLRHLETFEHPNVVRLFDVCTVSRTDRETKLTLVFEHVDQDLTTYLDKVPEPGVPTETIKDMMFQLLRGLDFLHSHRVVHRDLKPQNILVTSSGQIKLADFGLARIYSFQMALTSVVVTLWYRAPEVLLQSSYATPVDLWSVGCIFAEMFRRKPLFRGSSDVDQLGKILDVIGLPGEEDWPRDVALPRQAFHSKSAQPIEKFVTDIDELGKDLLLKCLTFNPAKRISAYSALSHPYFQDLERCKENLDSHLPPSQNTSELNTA

Take `CN(C)CCCn1cc(C2=C(c3c[nH]c4ccccc34)C(=O)NC2=O)c2ccccc21` [GF-109203]: the ΔTm in [1] is 0.9 °C; in [2] it was 0.4 °C; in assay [3], 0.5 °C; in [4], 2.8 °C; in assay [5] it was 8.7 °C; in assay [6], 1.5 °C. Besides, the ΔTm was 1.1 °C in assay [7]; 0.9 °C in [8]; -0.2 °C in assay [9]; 3.1 °C in assay [10]; 2.5 °C in [11]; 9.1 °C in assay [12]. Further, the figures for the ΔTm in [13], in assay [14] and in [15] were 3.6 °C, 0.8 °C and 0.2 °C, respectively.
Regarding `CC(C)(C)n1nc(-c2ccc(Cl)cc2)c2c(N)ncnc21`, the ΔTm is 0.2 °C in assay [1]; -0.4 °C in assay [2]; 0.8 °C in assay [3]; -1.1 °C in assay [4]; 0.5 °C in [5]; 0.3 °C in assay [6]. Further, the ΔTm in assay [7] is 2.1 °C; in [8] it was 0.3 °C; in assay [9], -0.2 °C; in [10] it was -0.5 °C; in [11], 1 °C; in assay [12] it was 0.7 °C. Moreover, the ΔTm stood at 2.3 °C in [13], 0.4 °C in assay [14] and 0 °C in assay [15].
For `Cc1nc2sccn2c(=O)c1CCN1CCC(=C(c2ccccc2)c2ccc(F)cc2)CC1`, the thermal shift (ΔTm) in assay [1] was determined as 0.9 °C; in assay [2], 0 °C; in [3], 0.3 °C; in [4] it was 4.2 °C; in assay [5] it was 2.6 °C; in assay [6], 4.8 °C. Further, the ΔTm is 0.5 °C in assay [7]; 5.8 °C in assay [8]; 0.2 °C in assay [9]; -0.1 °C in [10]; 0.8 °C in [11]; 6.1 °C in assay [12]. For the same molecule, the ΔTm in assay [13] turned out to be 1.6 °C; in assay [14] it was 2.9 °C; in [15] it was 0.3 °C.
As for `COc1cc2ncnc(Nc3ccc(NC(=O)c4ccccc4)cc3)c2cc1OC` [ANILINOQUINAZOLINE1], the ΔTm in assay [1] came out at 0.3 °C; in assay [2], 1.1 °C; in assay [3], 0.5 °C; in assay [4] it was 0.5 °C; in assay [5] it was 2.9 °C; in [6] it was 1.9 °C. The ΔTm in [7] is 0.2 °C; in [8] it was 0.1 °C; in assay [9], -0.1 °C; in [10] it was 1.8 °C; in [11], 0 °C; in assay [12] it was 6.2 °C. Moreover, the ΔTm came out at 1 °C in assay [13], 9.4 °C in [14] and 0.5 °C in [15].
Take `NCCNc1ncc(C(N)=O)c(Nc2cccc(C(F)(F)F)c2)n1`: the ΔTm was 0.4 °C in assay [1]; 1.1 °C in [2]; 0.7 °C in assay [3]; 3.2 °C in assay [4]; 8.1 °C in [5]; 1.4 °C in assay [6]. Besides, the ΔTm is 1.6 °C in assay [7]; -0.1 °C in assay [8]; 3 °C in assay [9]; 1 °C in [10]; 6.1 °C in [11]; 1.1 °C in assay [12]. The results for the ΔTm in [13], in assay [14] and in [15] were 2.3 °C, 2.6 °C and 3.6 °C, respectively.
As to `CCOC(=O)c1c(C)[nH]c(/C=C2\C(=O)Nc3ccccc32)c1C`, the ΔTm in assay [1] is 0.7 °C; in [2], -5 °C; in assay [3], 0.4 °C; in assay [4] it was 0 °C; in assay [5], 2.3 °C; in assay [6], 8.5 °C. The ΔTm in assay [7] is 0 °C; in assay [8], -1.4 °C; in [9] it was -0.1 °C; in assay [10], 0.1 °C; in assay [11], 0.9 °C; in [12], 0.3 °C. For the same molecule, the ΔTm in assay [13] is -1.6 °C; in assay [14], 0.1 °C; in assay [15] it was -1.7 °C.
With `O=C(O)c1cc(N(Cc2ccccc2O)Cc2cc(O)ccc2O)ccc1O` [LAVENDUSTIN A], the ΔTm in [1] is -0.1 °C; in assay [2], 0.4 °C; in assay [3], 0.6 °C; in [4] it was 0.8 °C; in [5] it was -0.1 °C; in assay [6], 0.4 °C. The ΔTm was -1.1 °C in [7]; 0.2 °C in assay [8]; 0.8 °C in assay [9]; 2.1 °C in assay [10]; 0.1 °C in assay [11]; 0.4 °C in [12]. Also, the thermal shift (ΔTm) was 1.2 °C in [13], 1.7 °C in assay [14] and 0.3 °C in assay [15].
Regarding `CC(C)(C)n1nc(-c2cccc3ccccc23)c2c(N)ncnc21`, the ΔTm in assay [1] is 0.2 °C; in assay [2], -0.3 °C; in assay [3], 0.5 °C; in [4], -0.8 °C; in [5], 0.1 °C; in assay [6], -0.1 °C. Besides, the ΔTm was 3.5 °C in assay [7]; 0.8 °C in [8]; 0 °C in assay [9]; -4.9 °C in assay [10]; 1.2 °C in assay [11]; 0.7 °C in [12]. Further, the ΔTm in [13] stood at 2.1 °C; in assay [14], 0.3 °C; in assay [15] it was 0.7 °C.
For `Cc1[nH]c(/C=C2\C(=O)Nc3ccc(S(=O)(=O)N(C)c4cccc(Cl)c4)cc32)c(C)c1C(=O)N1CCN(C)CC1`, the ΔTm in [1] was 0.8 °C; in assay [2], -0.4 °C; in assay [3], 0.3 °C; in assay [4], 2.6 °C; in [5], 4.2 °C; in assay [6], 3.4 °C. In addition, the ΔTm in assay [7] was 3 °C; in [8] it was -0.7 °C; in assay [9], 1.4 °C; in assay [10], 5 °C; in assay [11] it was 1.4 °C; in assay [12], 9.7 °C. The figures for the ΔTm in [13], in assay [14] and in assay [15] were 3.1 °C, 11.3 °C and 1.5 °C, respectively.
